Article PMC7869897, “Structure–functional relationship of cellular retinoic acid-binding proteins I and II interacting with natural and synthetic ligands” (Acta Crystallographica. Section D, Structural Biology, 2021)
Values belong to the compound of their own block, whether it stands above or below them.

How the values were obtained:
Type in all cases: binding
[1] = target: T1, CRABPI (Homo sapiens, UniProt P29762, L29C); test: fluorescent probe displaced by DC645
T1 construct: gene CRABP1; His-tagged, tag cleaved with thrombin
T1 sequence (P29762 whole entry L29C): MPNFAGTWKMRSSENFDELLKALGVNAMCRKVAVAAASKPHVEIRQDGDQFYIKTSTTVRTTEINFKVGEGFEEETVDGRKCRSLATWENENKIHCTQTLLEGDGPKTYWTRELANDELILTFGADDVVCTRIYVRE

[2] = target: T2, CRABPII (Homo sapiens, UniProt P29373); test: solvatochromic fluorescence probe, with and without CRABPII; displaced by DC645
T2 construct: gene CRABP2; GST-tagged, tag cleaved with thrombin
T2 sequence (P29373 1-138): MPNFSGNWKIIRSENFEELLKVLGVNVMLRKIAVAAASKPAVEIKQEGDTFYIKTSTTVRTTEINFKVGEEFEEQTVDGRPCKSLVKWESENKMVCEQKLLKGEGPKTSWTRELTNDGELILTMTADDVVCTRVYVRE

[3] = target: T2, CRABPII; test: co-crystal structure ([…] Å)
[4] = target: T1, CRABPI; test: co-crystal structure ([…] Å) and competitive fluorescence displacement of DC271
[5] = target: T2, CRABPII; test: as above
[6] = target: T1, CRABPI; test: crystal structure ([…] Å); co-purified fatty acid density modelled as myristic acid

Compound: CC(C)N1CCC(C)(C)c2cc(C#Cc3ccc(C(=O)O)cc3)ccc21 [DC271]
- fluorescent probe displaced by DC645 [1]: Competitive displacement of DC271 from CRABPI-L29C by DC645 was carried out
- solvatochromic fluorescence probe, with and without CRABPII; displaced by DC645 [2]: DC271 presents a stark solvatochromic effect when in the presence of CRABPII owing to inclusion into the binding site

Compound: CC(C)N1CCC(C)(C)c2ccc(-c3ccc(/C=C/C(=O)O)cc3)cc21 [DC479]
- co-crystal structure (1.80 Å) [3]: DC479 occupies the binding site fully, with its carboxylic acid head buried adjacent to the canonical binding triad

- Kd [4]: 1.94 ± 0.11 µM
- Kd [5]: 0.25 ± 0.06 µM
Compound: CC1(C)CCC(C)(C)c2nc(C#Cc3ccc(C(=O)O)cc3)cnc21 [DC645]

Compound: CCCCCCCCCCCCCC(=O)O [MYR, myristic acid]
- crystal structure (1.64 Å); co-purified fatty acid density modelled as myristic [6]: a conserved water molecule hydrogen-bonded to the associated ligand modelled as the 14-carbon myristic acid
